Results from patent publication US20200270216A1, “COMPOSITIONS AND METHODS FOR INHIBITING N-SMASE2” (The Regents of the University of California, priority 2017, published 2020).
“Also recorded” adds a separate entry of the source.

How the values were obtained:
[1] = tested on: HEK293T Tau RD P301S FRET biosensor cells; experiment: EV-mediated tau transfer assay; format: cell-based
Protocol: For EV (extracellular vesicles)-mediated tau transfer assay, donor cells, transduced with AD-brain derived synaptosomal extracts (P2) or synthetic K18 seeds, were cultured for 48 hours in exosome-free medium with or without indicated concentration of tested compounds or DMSO for control, then medium was collected and EVs were purified using Exo-Quick-TC exosome purification kit (SBI, EXOTC10A-1) according to the manufacturing instructions. Naive recipient cells were plated at density 30,000 cells per well (96-well plates), grown for 12 hour in regular medium and then medium was exchanged to exosome-depleted medium, contained exosomes purified from donor cells (each well of recipients received amount of exosomes purified from one well of donor cells). Recipient cells were cultured in the presence of donor cell exosomes for 60 hrs. EV-mediated transfer assay scheme is presented at the FIG. 5A (right).
HEK293T Tau RD P301S FRET biosensor cells were growing in the Dulbecco's Modified Eagle's medium (DMEM) with higher glucose, 10% FBS, and 1% Penicillin-streptomycin at 37° C./5% CO2. Cells were plated in 10-sm dishes (3 million cells per dish in the regular medium) and grown for 12 hrs. Cells assigned to be donors were transduced with pulled synaptosomal (P2) extracts from AD cases using lipofectamine 2000, according to the published literature with minor modifications. We used 35 μg of pulled AD or control (NL) material per one 10-sm dish (TableS1). Defrosted P2 extracts were sonicated in water bath sonicator for 10 minutes, and diluted with Opti-MEM serum reduced medium to the final volume 200 μL per 10-sm dish. In a separate tube lipofectamine 2000 were combined with Opti-MEM medium, based on 25 μl of lipofectamine and 175 μL OptiMEM medium per each 10-sm dish, and incubated for 10 minutes at room temperature (RT). Each P2 or NL extract mix (200 μl) and prepared lipofectamine 2000 mix (200 μl) were combined and incubated for 20 min at RT. Each 10-sm dish with cell received 400 μl of the final liposomes in the total volume of medium 5 ml per dish. Cultures treated with equal amount of empty liposomes were used as an additional control group. Cells were incubated with liposomes for 20 hrs.
For “D+R” assay recipient cells were labeled with 1,1′-Dioctadecyl-3,3,3′,3′-tetramethylindodicarbocyanine (DiD) according to manufacturer's protocol (ThermoFisher V22887) on day 2. On day 3, donor cells were trypsinized (0.05% Trypsin/EDTA), washed with fresh exosome-free medium contained 10% of exosome-depleted FBS (ThermoFisher, A2720803). DiD-labeled recipient cells were also trypsinized and washed in exosome-free medium. […] FRET signal was detected using LSRII flow cytometer (BD biosciences). […]

[2] = tested on: HEK293T Tau RD P301S FRET biosensor cells; experiment: D+R functional assay: tau seed transfer from P2-seeded donor cells to DiD-labeled recipient cells; format: cell-based
Protocol: The compounds disclosed herein were further evaluated in the functional assays (“D+R approach”). The assays were based on the use of two cell populations—donor cells (D) and recipient cells (R). Recipients express a specific signal upon accumulation of protein aggregates (for example, FRET signal). The D+R approach can be divided into four steps (FIG. 4A).
In step 1, donor and recipient cells were plated in separation and protein aggregation is induced in the donor cells by using tissue-derived or synthetic proteopathic seeds (“seeding”) or by chemical and/or genetic methods. In step 2, either donor cells or recipient cells were labeled with a lipophilic dye (or by other cell labeling technology) in order to be able to distinguish between donor and recipients cells after trypsinization and re-plating of the donor and recipient cells together in step 3 (R+D). Alternatively, donor and recipient cells were physically divided by a permeable support (for example, Transwell). In any scenario, the cells were connected through the media and they grow for 24-60 hours with or without addition of pre-selected compounds. Efficiency of proteopathic seed transmission from donor cells to recipient cells can be analyzed using microscopy, flow cytometry, or imaging flow cytometry. […] Treatment of the tau biosensor cells with tau seeds lead to RD aggregation, as a result, CFP and YFP molecules come into close proximity and a FRET signal can be generated in the CFP/YFP pair upon illumination. The far-red fluorescent, lipophilic carbocyanine dye, DiD, was used for labeling recipient cells. This dye allowed for distinguishing between the DiD-negative donor and the DiD positive recipient cells without interference with the CFP/YFP FRET signal. The representative images of DiD-negative FRETpositive donor cell seeded with P2-derived tau seeds), DiD-positive FRET-negative recipient cell (DiD-R), and DiD positive FRET-positive recipient cell, which were growing in the presence of P2-D (DiD-R/R+D) are presented at the FIG. 4B. […]

O=c1[nH]c(=S)[nH]c(-c2ccccc2)c1Cc1c(O)ccc2ccccc12 [cambinol]
EV-mediated transfer of tau to recipient cells ([1]; P2-seeded donor cells treated at 50 μM, 48 hours): decrease; also recorded: more effective than the nSMase2 inhibitor GW4869
reduction of EV-mediated transfer of tau seeds to naive recipient cells ([1]; inhibitor treatment of donor cells): 8 times
tau seed transmission from donor cells to recipient cells ([2]; D+R model, flow cytometry (FIG. 4C)): restrained tau seed transmission from the donor cells to the recipient cells in a dose-dependent manner
EC50 ([2]; Homo sapiens, HEK-293T, 48 h, 48-hour treatment, P2-seeded donor cells, FRET-positive aggregates in recipient cells, read-out: EC50, reduction of tau transfer from donor to recipient cells (D+R assay)): ~14 µM
